We go through 1 compound from patent EP1077677B1, “PROCESS FOR THE MANUFACTURE OF A BIOLOGICALLY ACTIVE COMPOSITION” (JAGOTEC AG, priority 1998, dated 1999).

In brackets after ≈: the same amount, converted by molar mass.

The nature of this data set: physchem. Conditions: water. The format is physicochemical. The protocol:
In order to determine its water solubility, an excess of metronidazole was added to water, after which the mixture was stirred for 3 days at room temperature.

By solubility (thermodynamic) is commonly meant solubility found after equilibrating the solid with the medium. `Cc1ncc([N+](=O)[O-])n1CCO` [metronidazole] yielded a solubility (thermodynamic) at 72 h of 8.2 mg/mL (≈ 47.9 mM).
